The record followed here is patent US11999746B2, “Compounds” (GlaxoSmithKline Intellectual Property Development Limited, priority 2014, dated 2024).

Assay [1] concerns the target T1, recombinant human Lp-PLA2 (Homo sapiens, UniProt Q13093).
T1 sequence (Q13093 22-441): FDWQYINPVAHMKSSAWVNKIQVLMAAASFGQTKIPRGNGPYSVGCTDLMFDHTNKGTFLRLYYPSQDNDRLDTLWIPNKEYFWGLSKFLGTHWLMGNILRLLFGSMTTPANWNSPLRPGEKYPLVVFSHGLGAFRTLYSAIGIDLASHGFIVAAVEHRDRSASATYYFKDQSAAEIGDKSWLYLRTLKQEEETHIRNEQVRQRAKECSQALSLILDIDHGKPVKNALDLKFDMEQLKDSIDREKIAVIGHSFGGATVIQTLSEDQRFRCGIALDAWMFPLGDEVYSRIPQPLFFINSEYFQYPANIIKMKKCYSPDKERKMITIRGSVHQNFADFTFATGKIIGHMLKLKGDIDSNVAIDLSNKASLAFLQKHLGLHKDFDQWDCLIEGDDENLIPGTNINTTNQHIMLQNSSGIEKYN
In words: (1b) hrThioPAF assay, recombinant human Lp-PLA2. The following applies: Examples 266-412 were tested here, one experiment or average of multiple experiments, read-out: rhLp-PLA2 (pIC50) (converted). It is filed as biochemical. The procedure, abridged:
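Fluorogenic assay: 20 pM rhLp-PLA2 in 50 mM HEPES pH 7.4, 150 mM NaCl, 1 mM CHAPS with 1:3 serially diluted compounds; substrate mix of 40 μM 2-thio-PAF, 40 μM CPM, 400 μM NEM (pre-addition levels). 20 min at 25 °C in the dark; fluorescence ex 380/em 485 nm, pIC50 by curve fitting.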

Assay [2] has as its target T2, Lp-PLA2 in human plasma (Homo sapiens, UniProt Q13093).
T2 construct: from tissue; host or cells: pooled human plasma
T2 sequence (Q13093 22-441): T1 sequence (Q13093 22-441)
In words: (3b) Lp-PLA2 human plasma alternative Thio-PAF assay. The format is biochemical. The following applies: (3b) alternative Thio-PAF assay, pooled human plasma; Examples of 266-412 were tested here; read-out: pIC50 in the Lp-PLA2 human plasma assay (converted). The procedure, abridged: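 Pooled human plasma was preincubated with compound for 15 min at RT. Substrate solution (2 mM 2-thio-PAF, 52 μM CPM, 2.5 mM NEM in 50 mM HEPES pH 7.4, 150 mM NaCl, 1 mM CHAPS; pre-addition concentrations) was added, and the reaction was quenched with 5% TFA after 3 min. Fluorescence was read at ex 380/em 485 nm and fitted to give pIC50.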

Each structure is given as a SMILES string. Structures can show the parent of a compound that is named as a salt.

Consider `NC1(C(=O)N2CCN3c4cc(OCc5ccc(F)c(F)c5)nc(=O)n4CC3C2)CCOCC1` (centres unmarked) [Example E345, 2-(4-Aminotetrahydro-2H-pyran-4-carbonyl)-7-((3,4-difluorobenzyl)oxy)-3,4,11,11a-tetrahydro-1H-pyrazino[1,2′:3,4]imidazo[1,2-c]pyrimidin-9(2H)-one], for which the IC50 in assay [1] is at most 10000 nM; in assay [2] it was at most 100 nM.

For the compound `N#Cc1cc(COc2cc3n(c(=O)n2)C[C@@H]2C[C@H](N)CN32)ccc1F` [Example E391, 5-((((7S,8aS)-7-Amino-1-oxo-1,6,7,8,8a,9-hexahydropyrrolo[1′,2′:3,4]imidazo[1,2-c]pyrimidin-3-yl)oxy)methyl)-2-fluorobenzonitrile], the IC50 in assay [1] was at most 10000 nM; in assay [2] it was at most 100 nM.

For the compound `O=c1nc(OCc2ccc(F)c(F)c2)cc2n1CC1(CCOCC1)N2` [Example 402, 7-((3,4-Difluorobenzyl)oxy)-2′,3′,5′,6′-tetrahydro-1H-spiro[imidazo[1,2-c]pyrimidine-2,4′-pyran]-5(3H)-one], the values for the IC50 in assay [1] and in assay [2] were at most 10000 nM and at most 100 nM, respectively.

For the compound `N#Cc1cc(COc2cc3n(c(=O)n2)CC2C[S+]([O-])CCN32)ccc1F` (centres unmarked) [Example E366, 2-Fluoro-5-(((2-oxido-9-oxo-1,3,4,9,11,11a-hexahydropyrimido[6′,1′:2,3]imidazo[5,1-c][1,4]thiazin-7-yl)oxy)methyl)benzonitrile], the values for the IC50 in assay [1] and in assay [2] were at most 10000 nM and at most 100 nM, respectively.

As for `N#Cc1cc(COc2cc3n(c(=O)n2)CC2CN(C(=O)CCN)CCN32)ccc1F` (centres unmarked) [Example E288, 5-(((2-(3-Aminopropanoyl)-9-oxo-2,3,4,9,11,11a-hexahydro-1H-pyrazino[1′,2′:3,4]imidazo[1,2-c]pyrimidin-7-yl)oxy)methyl)-2-fluorobenzonitrile], the IC50 was at most 10000 nM in assay [1] and at most 100 nM in assay [2].

Turning to `CC(C)(C)C(=O)N1CCN2c3cc(OCc4ccc(F)c(F)c4)nc(=O)n3CC2C1` (centres unmarked) [Example E332, 7-((3,4-Difluorobenzyl)oxy)-2-pivaloyl-3,4,11,11a-tetrahydro-1H-pyrazino[1′,2′:3,4]imidazo[1,2-c]pyrimidin-9(2H)-one], the figures for the IC50 in assay [1] and in assay [2] were at most 10000 nM and at most 100 nM, respectively.

Take `Cc1ccc(Oc2c(F)cc(COc3cc4n(c(=O)n3)CC3(CCOCC3)N4C)cc2F)cn1` [Example 405, 7-((3,5-Difluoro-4-((6-methylpyridin-3-yl)oxy)benzyl)oxy)-1-methyl-2′,3′,5′,6′-tetrahydro-1H-spiro[imidazo[1,2-c]pyrimidine-2,4′-pyran]-5(3H)-one]: the IC50 in assay [1] and in assay [2] was at most 100 nM in each case.

Turning to `CN(C)CC(=O)N1CCN2c3cc(OCc4ccc(F)c(F)c4)nc(=O)n3CC2C1` (centres unmarked) [Example E346, 7-((3,4-Difluorobenzyl)oxy)-2-(2-(dimethylamino)acetyl)-3,4,11,11a-tetrahydro-1H-pyrazino[1,2′:3,4]imidazo[1,2-c]pyrimidin-9(2H)-one], the IC50 was at most 10000 nM in assay [1] and at most 100 nM in assay [2].

For the compound `CC(=O)N1CCN2c3cc(OCc4ccc(F)c(C#N)c4)nc(=O)n3CC2C1` (centres unmarked) [Example E281, 5-(((2-Acetyl-9-oxo-2,3,4,9,11,11a-hexahydro-1H-pyrazino[1′,2′:3,4]imidazo[1,2-c]pyrimidin-7-yl)oxy)methyl)-2-fluorobenzonitrile, trifluoroacetic Acid Salt], the IC50 in assay [1] is at most 10000 nM; in assay [2] it was at most 100 nM.

For `CC(C)CN1CCN2c3cc(OCc4ccc(F)c(F)c4)nc(=O)n3CC2C1` (centres unmarked) [Example E305, 7-((3,4-Difluorobenzyl)oxy)-2-isobutyl-3,4,11,11a-tetrahydro-1H-pyrazino[1′,2′:3,4]imidazo[1,2-c]pyrimidin-9(2H)-one], the IC50 in assay [1] is at most 10000 nM; in assay [2], at most 100 nM.

With `Cc1ccc(Oc2c(F)cc(COc3cc4n(c(=O)n3)CC3(CCOCC3)N4)cc2F)cn1` [Example 403, 7-((3,5-Difluoro-4-((6-methylpyridin-3-yl)oxy)benzyl)oxy)-2′,3′,5′,6′-tetrahydro-1H-spiro[imidazo[1,2-c]pyrimidine-2,4′-pyran]-5(3H)-one], the figures for the IC50 in assay [1] and in assay [2] were at most 10000 nM and at most 100 nM, respectively.

Consider `O=c1nc(OCc2cc(F)c(Oc3ccnc(C(F)(F)F)c3)c(F)c2)cc2n1CC1C[S+]([O-])CCN21` (centres unmarked) [Example E369, 7-((3,5-Difluoro-4-((2-(trifluoromethyl)pyridin-4-yl)oxy)benzyl)oxy)-3,4,11,11a-tetrahydropyrimido[6′,1′:2,3]imidazo[5,1-c][1,4]thiazin-9(1H)-one 2-oxide], for which the IC50 was at most 10000 nM in assay [1] and at most 100 nM in assay [2].

Take `N#Cc1cc(COc2cc3n(c(=O)n2)CC2CN(C(=O)C4CC4)CCN32)ccc1F` (centres unmarked) [Example E292, 5-(((2-(cyclopropanecarbonyl)-9-oxo-2,3,4,9,11,11a-hexahydro-1H-pyrazino[1′,2′:3,4]imidazo[1,2-c]pyrimidin-7-yl)oxy)methyl)-2-fluorobenzonitrile 2,2,2-trifluoroacetate]: the IC50 is at most 10000 nM in assay [1] and at most 100 nM in assay [2].

With `Cc1ccc(Oc2c(F)cc(COc3cc4n(c(=O)n3)CC3CNCCN43)cc2F)cn1` (centres unmarked) [Example E279, 7-((3,5-Difluoro-4-((6-methylpyridin-3-yl)oxy)benzyl)oxy)-3,4,11,11a-tetrahydro-1H-pyrazino[1′,2′:3,4] imidazo [1,2-c]pyrimidin-9(2H)-one], the IC50 in assay [1] is at most 10000 nM; in assay [2], at most 100 nM.

For the compound `N#Cc1cc(COc2cc3n(c(=O)n2)CC2CSCCN32)ccc1F` (centres unmarked) [Example E364, 2-Fluoro-5-(((9-oxo-1,3,4,9,11,11a-hexahydropyrimido[6′,1′:2,3]imidazo[5,1-c][1,4]thiazin-7-yl)oxy)methyl)benzonitrile], the IC50 in assay [1] and in assay [2] was at most 100 nM in each case.

Consider `NC1(C(=O)N2CCN3c4cc(OCc5ccc(F)c(F)c5)nc(=O)n4CC3C2)CCCCC1` (centres unmarked) [Example E347, 2-(1-Aminocyclohexanecarbonyl)-7-((3,4-difluorobenzyl)oxy)-3,4,11,11a-tetrahydro-1H-pyrazino[1,2′:3,4]imidazo[1,2-c]pyrimidin-9(2H)-one], for which the IC50 in assay [1] is at most 10000 nM; in assay [2], at most 100 nM.

On to `N[C@@H]1C[C@@H]2Cn3c(cc(OCc4cc(F)c(Oc5ccnc(C(F)(F)F)c5)c(F)c4)nc3=O)N2C1` [Example E387, (7R,8aR)-7-Amino-3-((3,5-difluoro-4-((2-(trifluoromethyl)pyridin-4-yl)oxy)benzyl)oxy)-7,8,8a,9-tetrahydropyrrolo[1′,2′:3,4]imidazo[1,2-c]pyrimidin-1(6H)-one], for which the figures for the IC50 in assay [1] and in assay [2] were at most 10000 nM and at most 100 nM, respectively.

As to `N#Cc1cc(COc2cc3n(c(=O)n2)C[C@@H]2C[C@H](O)CN32)ccc1F` [Example E382, 2-Fluoro-5-((((7S,8aS)-7-hydroxy-1-oxo-1,6,7,8,8a,9-hexahydropyrrolo[1′,2′:3,4]imidazo[1,2-c]pyrimidin-3-yl)oxy)methyl)benzonitrile], the figures for the IC50 in assay [1] and in assay [2] were at most 10000 nM and at most 100 nM, respectively.

As for `[2H]C1([2H])C2CN(C(C)=O)CCN2c2cc(OCc3ccc(F)c(C#N)c3)nc(=O)n21` (centres unmarked) [Example E285, 5-(((2-Acetyl-11,11-dideutero-9-oxo-2,3,4,9,11,11a-hexahydro-1H-pyrazino[1′,2′:3,4]imidazo[1,2-c]pyrimidin-7-yl)oxy)methyl)-2-fluorobenzonitrile], the IC50 in assay [1] is at most 10000 nM; in assay [2], at most 100 nM.

Turning to `O=C([C@@H]1CCCN1)N1CCN2c3cc(OCc4ccc(F)c(F)c4)nc(=O)n3CC2C1` (stereo partly drawn) [Example E340, 7-((3,4-Difluorobenzyl)oxy)-2-((S)-pyrrolidine-2-carbonyl)-3,4,11,11a-tetrahydro-1H-pyrazino[1,2′:3,4]imidazo[1,2-c]pyrimidin-9(2H)-one], the IC50 in assay [1] was at most 10000 nM; in assay [2], at most 100 nM.

`O=C([C@H]1CCCN1)N1CCN2c3cc(OCc4ccc(F)c(F)c4)nc(=O)n3CC2C1` (stereo partly drawn) [Example E343, 7-((3,4-Difluorobenzyl)oxy)-2-((R)-pyrrolidine-2-carbonyl)-3,4,11,11a-tetrahydro-1H-pyrazino[1,2′:3,4]imidazo[1,2-c]pyrimidin-9(2H)-one]: the IC50 in assay [1] is at most 10000 nM; in assay [2], at most 100 nM.

Consider `N#Cc1cc(COc2cc3n(c(=O)n2)CC2CN(C(=O)C(F)(F)F)CCN32)ccc1F` (centres unmarked) [Example E323, 2-Fluoro-5-(((9-oxo-2-(2,2,2-trifluoroacetyl)-2,3,4,9,11,11a-hexahydro-1H-pyrazino[1′,2′:3,4]imidazo[1,2-c]pyrimidin-7-yl)oxy)methyl)benzonitrile], for which the values for the IC50 in assay [1] and in assay [2] were at most 10000 nM and at most 100 nM, respectively.
